Measured values: ChEMBL document CHEMBL3885881, “DrugMatrix”

Species on record: Rattus norvegicus
Assay: DrugMatrix - Regimen: Daily Repeat
Type: toxicity, organism-based, Sprague-Dawley
Design: regimen Daily Repeat, gender Male, age 6-8 weeks
Conditions: in vivo, sc, 0 mg/kg, route mini-PUMP - SUBCUTANEOUS, dose level Control, vehicle 100 % SALINE; for ABSOLUTE BASOPHIL / ABSOLUTE EOSINOPHIL / ABSOLUTE LYMPHOCYTE / ABSOLUTE MONOCYTE / ABSOLUTE SEGMENTED NEUTROPHIL / BASOPHIL / EOSINOPHIL / ERYTHROCYTE COUNT / HEMATOCRIT / HEMOGLOBIN / LEUKOCYTE COUNT / LYMPHOCYTE / MEAN CORPUSCULAR HEMOGLOBIN / MEAN CORPUSCULAR HEMOGLOBIN CONCENTRATION / MEAN CORPUSCULAR VOLUME / MONOCYTE / NEUTROPHIL / NUCLEATED RED BLOOD CELLS / PLATELET COUNT: tissue Blood; for ALANINE AMINOTRANSFERASE / ALBUMIN / ALKALINE PHOSPHATASE / ASPARTATE AMINOTRANSFERASE / BLOOD UREA NITROGEN / CARBON DIOXIDE / CHLORIDE / CHOLESTEROL / CREATININE / GLUCOSE / LACTATE DEHYDROGENASE / LIPASE / PHOSPHORUS / POTASSIUM / SODIUM / TOTAL BILIRUBIN / TOTAL PROTEIN / URIC ACID: tissue Plasma

SMILES: C[C@]12CCC(=O)C=C1CC[C@@H]1[C@@H]2[C@@H](O)C[C@]2(C=O)[C@@H](C(=O)CO)CC[C@@H]12 [ALDOSTERONE]
- ABSOLUTE BASOPHIL (72 h, time 3 day): 0 CELLS/uL
- ABSOLUTE EOSINOPHIL (72 h, time 3 day): 77.17 CELLS/uL
- ABSOLUTE LYMPHOCYTE (72 h, time 3 day): 14293.83 CELLS/uL
- ABSOLUTE MONOCYTE (72 h, time 3 day): 354 CELLS/uL
- ABSOLUTE SEGMENTED NEUTROPHIL (72 h, time 3 day): 1658.33 CELLS/uL
- BASOPHIL (72 h, time 3 day): 0%
- EOSINOPHIL (72 h, time 3 day): 0.5%
- ERYTHROCYTE COUNT (72 h, time 3 day): 6.27 x10E6/uL
- HEMATOCRIT (72 h, time 3 day): 36.95%
- HEMOGLOBIN (72 h, time 3 day): 13.4 G/DL
- LEUKOCYTE COUNT (72 h, time 3 day): 16.38 x10E3/uL
- LYMPHOCYTE (72 h, time 3 day): 87.17%
- MEAN CORPUSCULAR HEMOGLOBIN (72 h, time 3 day): 21.42 pg
- MEAN CORPUSCULAR HEMOGLOBIN CONCENTRATION (72 h, time 3 day): 36.27 G/DL
- MEAN CORPUSCULAR VOLUME (72 h, time 3 day): 59.03 fL
- MONOCYTE (72 h, time 3 day): 2%
- NEUTROPHIL (72 h, time 3 day): 10.33%
- NUCLEATED RED BLOOD CELLS (72 h, time 3 day): 0 /100WBC
- PLATELET COUNT (72 h, time 3 day): 904.67 x10E3/uL
- ALANINE AMINOTRANSFERASE (72 h, time 3 day): 48.33 u/L
- ALBUMIN (72 h, time 3 day): 3.82 G/DL
- ALKALINE PHOSPHATASE (72 h, time 3 day): 282.33 u/L
- ASPARTATE AMINOTRANSFERASE (72 h, time 3 day): 86.83 u/L
- BLOOD UREA NITROGEN (72 h, time 3 day): 20.17 mg/dL
- CARBON DIOXIDE (72 h, time 3 day): 34.67 mmol/L
- CHLORIDE (72 h, time 3 day): 102 MEQ/L
- CHOLESTEROL (72 h, time 3 day): 71.5 mg/dL
- CREATININE (72 h, time 3 day): 0.2 mg/dL
- GLUCOSE (72 h, time 3 day): 136.83 mg/dL
- LACTATE DEHYDROGENASE (72 h, time 3 day): 159 u/L
- LIPASE (72 h, time 3 day): 9 u/L
- PHOSPHORUS (72 h, time 3 day): 10.12 mg/dL
- POTASSIUM (72 h, time 3 day): 5.92 MEQ/L
- SODIUM (72 h, time 3 day): 147.8 MEQ/L
- TOTAL BILIRUBIN (72 h, time 3 day): 0.2 mg/dL
- TOTAL PROTEIN (72 h, time 3 day): 6.05 G/DL
- URIC ACID (72 h, time 3 day): 1.4 mg/dL
- ABSOLUTE BASOPHIL (120 h, time 5 day): 0 CELLS/uL
- ABSOLUTE EOSINOPHIL (120 h, time 5 day): 0 CELLS/uL
- ABSOLUTE LYMPHOCYTE (120 h, time 5 day): 14257.33 CELLS/uL
- ABSOLUTE MONOCYTE (120 h, time 5 day): 326 CELLS/uL
- ABSOLUTE SEGMENTED NEUTROPHIL (120 h, time 5 day): 3216.67 CELLS/uL
- BASOPHIL (120 h, time 5 day): 0%
- EOSINOPHIL (120 h, time 5 day): 0%
- ERYTHROCYTE COUNT (120 h, time 5 day): 6.11 x10E6/uL
- HEMATOCRIT (120 h, time 5 day): 36.22%
- HEMOGLOBIN (120 h, time 5 day): 13.18 G/DL
- LEUKOCYTE COUNT (120 h, time 5 day): 17.8 x10E3/uL
- LYMPHOCYTE (120 h, time 5 day): 80.5%
- MEAN CORPUSCULAR HEMOGLOBIN (120 h, time 5 day): 21.62 pg
- MEAN CORPUSCULAR HEMOGLOBIN CONCENTRATION (120 h, time 5 day): 36.42 G/DL
- MEAN CORPUSCULAR VOLUME (120 h, time 5 day): 59.37 fL
- MONOCYTE (120 h, time 5 day): 1.83%
- NEUTROPHIL (120 h, time 5 day): 17.67%
- NUCLEATED RED BLOOD CELLS (120 h, time 5 day): 0 /100WBC
- PLATELET COUNT (120 h, time 5 day): 1311 x10E3/uL
- ALANINE AMINOTRANSFERASE (120 h, time 5 day): 47 u/L
- ALBUMIN (120 h, time 5 day): 3.83 G/DL
- ALKALINE PHOSPHATASE (120 h, time 5 day): 260.33 u/L
- ASPARTATE AMINOTRANSFERASE (120 h, time 5 day): 76.17 u/L
- BLOOD UREA NITROGEN (120 h, time 5 day): 14.67 mg/dL
- CARBON DIOXIDE (120 h, time 5 day): 31.33 mmol/L
- CHLORIDE (120 h, time 5 day): 101.17 MEQ/L
- CHOLESTEROL (120 h, time 5 day): 75 mg/dL
- CREATININE (120 h, time 5 day): 0.16 mg/dL
- GLUCOSE (120 h, time 5 day): 152.67 mg/dL
- LACTATE DEHYDROGENASE (120 h, time 5 day): 147.33 u/L
- LIPASE (120 h, time 5 day): 9.33 u/L
- PHOSPHORUS (120 h, time 5 day): 10.97 mg/dL
- POTASSIUM (120 h, time 5 day): 6 MEQ/L
- SODIUM (120 h, time 5 day): 145.52 MEQ/L
- TOTAL BILIRUBIN (120 h, time 5 day): 0.17 mg/dL
- TOTAL PROTEIN (120 h, time 5 day): 5.83 G/DL
- URIC ACID (120 h, time 5 day): 1.27 mg/dL
- ABSOLUTE BASOPHIL ([…], time 14 day): 0 CELLS/uL
- ABSOLUTE EOSINOPHIL ([…], time 14 day): 64.5 CELLS/uL
- ABSOLUTE LYMPHOCYTE ([…], time 14 day): 12507.83 CELLS/uL
- ABSOLUTE MONOCYTE ([…], time 14 day): 380.33 CELLS/uL
- ABSOLUTE SEGMENTED NEUTROPHIL ([…], time 14 day): 2414 CELLS/uL
- BASOPHIL ([…], time 14 day): 0%
- EOSINOPHIL ([…], time 14 day): 0.5%
- ERYTHROCYTE COUNT ([…], time 14 day): 6.1 x10E6/uL
- HEMATOCRIT ([…], time 14 day): 35.4%
- HEMOGLOBIN ([…], time 14 day): 12.88 G/DL
- LEUKOCYTE COUNT ([…], time 14 day): 15.37 x10E3/uL
- LYMPHOCYTE ([…], time 14 day): 80.83%
- MEAN CORPUSCULAR HEMOGLOBIN ([…], time 14 day): 21.18 pg
- MEAN CORPUSCULAR HEMOGLOBIN CONCENTRATION ([…], time 14 day): 36.43 G/DL
- MEAN CORPUSCULAR VOLUME ([…], time 14 day): 58.17 fL
- MONOCYTE ([…], time 14 day): 2.17%
- NEUTROPHIL ([…], time 14 day): 16.5%
- NUCLEATED RED BLOOD CELLS ([…], time 14 day): 0.17 /100WBC
- PLATELET COUNT ([…], time 14 day): 1016 x10E3/uL
- ALANINE AMINOTRANSFERASE ([…], time 14 day): 53.33 u/L
- ALBUMIN ([…], time 14 day): 3.93 G/DL
- ALKALINE PHOSPHATASE ([…], time 14 day): 319.83 u/L
- ASPARTATE AMINOTRANSFERASE ([…], time 14 day): 84 u/L
- BLOOD UREA NITROGEN ([…], time 14 day): 15.5 mg/dL
- CARBON DIOXIDE ([…], time 14 day): 34 mmol/L
- CHLORIDE ([…], time 14 day): 101.83 MEQ/L
- CHOLESTEROL ([…], time 14 day): 57 mg/dL
- CREATININE ([…], time 14 day): 0.21 mg/dL
- GLUCOSE ([…], time 14 day): 182.33 mg/dL
- LACTATE DEHYDROGENASE ([…], time 14 day): 104.67 u/L
- LIPASE ([…], time 14 day): 9.17 u/L
- PHOSPHORUS ([…], time 14 day): 11.12 mg/dL
- POTASSIUM ([…], time 14 day): 5.81 MEQ/L
- SODIUM ([…], time 14 day): 144.85 MEQ/L
- TOTAL BILIRUBIN ([…], time 14 day): 0.18 mg/dL
- TOTAL PROTEIN ([…], time 14 day): 5.92 G/DL
- URIC ACID ([…], time 14 day): 1.38 mg/dL
